Values of other authors, collected in patent US20050019354A1, “Topical benfotiamine treatments” (priority 2003, published 2005).

What was measured:
[1] = molecular target: T1, transketolase (Homo sapiens, UniProt P29401)
T1 sequence (P29401 1-623): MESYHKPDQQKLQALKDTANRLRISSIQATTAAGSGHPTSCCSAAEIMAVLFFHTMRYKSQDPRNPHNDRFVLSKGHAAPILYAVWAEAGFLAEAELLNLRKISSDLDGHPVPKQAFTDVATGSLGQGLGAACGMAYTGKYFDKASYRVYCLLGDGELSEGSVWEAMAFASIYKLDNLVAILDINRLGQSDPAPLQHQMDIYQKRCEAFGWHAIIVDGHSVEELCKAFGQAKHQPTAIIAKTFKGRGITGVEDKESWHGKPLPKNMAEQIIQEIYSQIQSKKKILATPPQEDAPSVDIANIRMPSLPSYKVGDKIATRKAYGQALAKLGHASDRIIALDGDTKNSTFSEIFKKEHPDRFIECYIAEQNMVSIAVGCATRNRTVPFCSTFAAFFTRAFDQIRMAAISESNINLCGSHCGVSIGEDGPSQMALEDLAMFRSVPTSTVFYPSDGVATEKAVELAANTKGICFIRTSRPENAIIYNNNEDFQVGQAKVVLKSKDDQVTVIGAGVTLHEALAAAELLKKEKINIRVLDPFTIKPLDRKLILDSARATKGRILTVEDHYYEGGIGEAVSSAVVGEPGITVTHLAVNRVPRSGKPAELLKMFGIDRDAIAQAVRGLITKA

[2] = system: retinopathy in diabetic rats

increase of transketolase activity [1]: 300%
SMILES: C/C(=C(\CCOP(=O)(O)O)SC(=O)c1ccccc1)N(C=O)Cc1cnc(C)nc1N [Benfotiamine, S-Benzoylthiamine-O-Monophosphate]
effect on retinopathy [2]: prevented retinopathy
